According to article PMC9698607, “Dual Functionalized Liposomes for Selective Delivery of Poorly Soluble Drugs to Inflamed Brain Regions” (Pharmaceutics, 2022):
Values belong to the compound of their own block, whether it stands above or below them.

Assays:
pronase = experiment: Pronase/unspecific protease activity assay on MSLPs (HPLC); format: biochemical; settings: 100 μM MSLP, 37 °C, up to 48 h, assay buffer pH 7.5
Protocol: (§1) Recombinant human MMP2 (rhMMP2, R&D system, Minneapolis, MN, USA) was diluted to 0.2 μg/mL in 200 µL assay buffer (50 mm Tris, 10 mM CaCl2, 150 mm NaCl, 0.05% (w/v) Brij 35, pH 7.5). The enzymatic reaction was started by adding 200 μL of 200 μM MSLPs in the assay buffer, and was stirred at 37 °C for 48 h. Final concentrations were 0.1 μg/mL for MMP2 and 100 μM for MSLPs. The reaction was monitored by HPLC between 1 and 48 h on a small aliquot, by deactivating the enzyme with a 10% aqueous TFA solution. MSLPs’ solutions in assay buffer (see below) were used as a blank. A pronase/unspecific protease activity assay on MSLPs was carried out by diluting a mixture of proteolytic enzymes at 2 ng/mL, 0.2 µg/mL and 20 µg/mL in 200 µL assay buffer (50 mm Tris, 10 mm CaCl2, 150 mm NaCl, 0.05% (w/v) Brij 35, pH 7.5). The enzymatic reaction was started by adding 200 μL of 200 μM MSLPs in the assay buffer, and was stirred at 37 °C for 48 h. Final concentrations of 1 ng/mL, 0.1 μg/mL and 10 μg/mL (Pronase) and 100 μM (MSLPs) were used. The reaction was monitored by HPLC between 1 and 48 h on a small aliquot, by deactivating the enzymes with a 10% aqueous TFA solution. MSLPs’ solutions in assay buffer were used as a blank.

Recombinant human MMP2 = target: T1, Recombinant human MMP2 (Homo sapiens, UniProt P08253); experiment: MMP2 activity assay on MSLPs (HPLC); format: biochemical; settings: 48 h, 37 °C, 0.1 μg/mL rhMMP2, 100 μM MSLP, 50 mM Tris, 10 mM CaCl2, 150 mM NaCl, 0.05% Brij 35, pH 7.5
T1 construct: purchased R&D Systems
T1 sequence (P08253 110-660): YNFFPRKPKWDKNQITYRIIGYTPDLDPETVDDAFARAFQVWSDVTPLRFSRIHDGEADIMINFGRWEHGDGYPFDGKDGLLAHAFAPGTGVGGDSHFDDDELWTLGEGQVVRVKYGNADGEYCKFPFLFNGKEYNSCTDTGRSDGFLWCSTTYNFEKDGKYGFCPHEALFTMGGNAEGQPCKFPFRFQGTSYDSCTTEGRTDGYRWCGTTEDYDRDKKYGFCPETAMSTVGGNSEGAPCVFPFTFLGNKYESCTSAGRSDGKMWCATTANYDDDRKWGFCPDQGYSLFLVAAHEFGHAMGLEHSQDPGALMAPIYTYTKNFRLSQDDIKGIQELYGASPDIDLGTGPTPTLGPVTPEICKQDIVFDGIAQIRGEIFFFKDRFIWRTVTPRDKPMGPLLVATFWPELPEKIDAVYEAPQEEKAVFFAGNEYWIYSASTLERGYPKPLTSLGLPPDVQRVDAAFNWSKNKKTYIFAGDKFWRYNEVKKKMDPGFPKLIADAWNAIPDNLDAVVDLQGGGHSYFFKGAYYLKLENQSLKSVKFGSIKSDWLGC
Protocol: as §1

primary neurons [1] = experiment: LDH-Glo cytotoxicity assay on primary neurons; format: cell-based; settings: primary mouse cortical neurons; 24 h; 0.085, 0.85, 8.5 and 85 µM glibenclamide; supernatants
Protocol: Primary neuronal cell cultures were established from C57Bl/6J E17.5 embryonic cerebral cortices (Charles River), according to our published protocol [37]. Briefly, we dissected forebrains in cold HBSS supplemented with 0.6% glucose and 5 mM HEPES pH 7.4 to obtain cerebral cortices. Cortices were mechanically dissociated in single cell preparations and re-suspended in culture medium containing Neurobasal, 5 mM HEPES pH 7.4, 0.6% glucose and the 1× B27 supplement. Cells were plated at 30,000 cells/well on 96 multi wells previously coated with poly lysine (0.2 mg/mL), and primed with Dulbecco’s modified Eagle’s media (DMEM) 20% FBS. […] Neurons were left to mature for 16 days, and upon visual inspection were used for cytotoxicity assays.
A bioluminescent lactate dehydrogenase (LDH)-release assay (LDH-Glo Cytotoxicity Assay, Promega) was used to assess cytotoxicity in supernatants of cells treated with liposomes according to manufacturer’s instruction. […] In each experiment, we calculated the % of cytotoxicity as follows:(Exp.LDH Release − MB)/(Max LDH Release Control − MB)(2) where MB is Medium Background.

primary neurons [2] = experiment: CCK8 cell viability assay on primary neurons; format: cell-based; settings: primary mouse cortical neurons, 16 days in vitro; 24 h; 0.085, 0.85, 8.5 and 85 µM glibenclamide; compared with DMSO controls
Protocol: C57BL6J mice were maintained under pathogen-free conditions at San Raffaele Hospital mouse facility (Milan, Italy). Procedures were performed according to the guidelines of the Institutional Animal Care and Use Committee of the San Raffaele Scientific Institute and the Ministry of Health (protocol number 372/2021-PR). Primary neuronal cell cultures were established from C57Bl/6J E17.5 embryonic cerebral cortices (Charles River), according to our published protocol. Briefly, we dissected forebrains in cold HBSS supplemented with 0.6% glucose and 5 mM HEPES pH 7.4 to obtain cerebral cortices. Cortices were mechanically dissociated in single cell preparations and re-suspended in culture medium containing Neurobasal, 5 mM HEPES pH 7.4, 0.6% glucose and the 1× B27 supplement. Cells were plated at 30,000 cells/well on 96 multi wells previously coated with poly lysine (0.2 mg/mL), and primed with Dulbecco’s modified Eagle’s media (DMEM) 20% FBS. Cells were maintained in a humidified 5% CO2/95% air environment at 37 °C. […] Cell viability was measured using the Cell Counting Kit-8 (CCK8) Metabolic Assay Kit, following the manufacturer’s protocol (Sigma-Aldrich, Burlington, VT, USA). […] We measured samples absorbance every 30 min at 450 nm, using a Multiskan Sky (Thermo fisher scientific, Waltham, MA, USA). Absorbance readings were subsequently normalized to the mean value of the controls.

[3] = system: TNFα release from BV2 microglial cells; experiment: TNFα ELISA in LPS-stimulated BV2 cells; format: cell-based, mouse; settings: free glibenclamide 10 to 80 μM for 60 h, then LPS for 8 h
Protocol: (§2) BV2 microglial cells, RAW264.7 and Neuro2A (N2A) cells were cultured in DMEM supplemented with 10% heat-inactivated FBS, 100 U/mL penicillin and 100 μg/mL streptomycin at 37 °C in a humidified 5% CO2 atmosphere. The day before the experiment, BV2 cells were plated on 24 well plates at 80,000 cells/well; LPS was dissolved in PBS as a stock solution (1 mg/mL), and stored at −20 °C. BV2 cells seeded into multiplates were exposed to LPS (0.5 µg/mL) in presence or absence of glibenclamide (40 µM), empty mApoE-MSLP1-liposomes and mApoE-MSLP1 loaded with glibenclamide. Cells were left in vitro for 40 or 60 h, treated with LPS for additional 8 h before using supernatants for an ELISA assessment of TNFα and IL-6. BV2 cells were seeded in 24-well plates at 80,000 cells/well, then treated with LPS (0.5 µg/mL) to induce TNFα and IL-6 production. Cells were treated for 8 h. Cytokine levels in cells supernatants collected before and after treatment were assayed using the mouse TNF-alpha DuoSet ELISA (R&D Systems, DY410) and the mouse IL-6 DuoSet ELISA kit (R&D Systems, DY406), according to manufacturer’s instructions.

[4] = system: IL-6 release from BV2 microglial cells; experiment: IL-6 ELISA in LPS-stimulated BV2 cells; format: cell-based, mouse; settings: free glibenclamide 10 to 80 μM for 60 h, then LPS for 8 h
Protocol: as §2, with “BV2 cells seeded into multiplates were exposed to LPS (0.5 µg/mL) in presence or absence of glibenclamide (40 µM), empty mApoE-MSLP1-liposomes and mApoE-MSLP1 loaded with glibenclamide.” left out

cleavage by pronase (pronase; 10 μg/mL pronase): complete cleavage
change of intensity of HPLC peak with pronase (pronase; lower pronase concentrations (1 ng/mL, 0.1 μg/mL)): no significant change
HPLC peak of lipopeptide after incubation with MMP2 (Recombinant human MMP2): still present
Compound: SKK(stearate)SGAKPRA-LTASK(stearate)KS [MSLP-2, MMP2/9-responsive lipopeptide with two stearate tails]

HPLC peak of lipopeptide after incubation with MMP2 (Recombinant human MMP2): still present
Compound: SKK(stearate)GSALGQIGPSK(stearate)KS [c-MSLP]

HPLC peak of lipopeptide after incubation with MMP2 (Recombinant human MMP2): completely disappeared
Compound: SKK(stearate)SGPLGIAGQSK(stearate)KS [MSLP-1, MMP2-responsive lipopeptide with two stearate tails]

Compound: COc1ccc(Cl)cc1C(=O)NCCc1ccc(S(=O)(=O)NC(=O)NC2CCCCC2)cc1 [glibenclamide]
cytotoxicity (LDH release) (primary neurons [1]): did not increase cytotoxicity
cell viability (CCK8) (primary neurons [2]): did not affect cell viability
TNFα levels [3]: dose-dependent reduction
IL-6 levels [4]: dose-dependent reduction
